Among the data in the OligoGym collection are calcium oscillation score values, retold here.

Bases are written 5' to 3'; sugars and linkages follow in the same order, as letters with counts (s phosphorothioate, o phosphodiester; PS: all linkages phosphorothioate). The collection does not say whether C is 5-methylated. l = locked nucleic acid (LNA); d = 2'-deoxy (DNA)

This data set addresses Tau. The data set is described as follows: rat primary cortical neurons, FLIPR, 25 uM ASO.
Regarding “TAGCCCTAAAGTCCCAGGTC (sugars l3 d14 l3, PS)”, the calcium oscillation score is 54 % of control.
For the sequence “TCTTTGAACACCCCATCT (sugars l2 d14 l2, PS)”, the calcium oscillation score is 41 % of control.
In the case of “ATTTCCAAATTCACTTTTAC (sugars llldlddddddddddldlll, PS)” it was 135 % of control.
In the case of AGCCACTGTTGCCACA (sugars l2 d12 l2, PS) it was 39.3 % of control.
In the case of “TTATTTCCAAATTCACTTTT (sugars l4 d11 l5, PS)”, the calcium oscillation score is 124 % of control.
For the sequence CCATTAATTTAGCCAA (sugars l3 d9 l4, PS), the calcium oscillation score was 87.2 % of control.
Turning to “CAAATCAATTCTCATTTCAA (sugars l4 d12 l4, PS)”, the calcium oscillation score was 65.7 % of control.
In the case of CTTTGAGTTGAGGGAC (sugars l3 d10 l3, PS) it was 29.1 % of control; in that of “CCAGGGACCCAATCTTCGAC (sugars l3 d14 l3, PS)”, 9.04 % of control.
In the case of “ACTGCTCAGCTAAGACCCTC (sugars l3 d14 l3, PS)” it was 23.9 % of control; in that of “TATTGCTTTCCAATTCCC (sugars l4 d12 l2, PS)”, 93.2 % of control.
In the case of CCGTGGTCTGTCTTGG (sugars l3 d10 l3, PS), the calcium oscillation score is 42.2 % of control.
With CGAGCCAAAGCCGA (sugars l3 d8 l3, PS), the calcium oscillation score is 116 % of control.
In the case of “TCAGCTCTTCCATAAGCAGG (sugars l3 d14 l3, PS)” it was 38.5 % of control; in that of “TTCTGAATTCCTATCAT (sugars l4 d10 l3, PS)”, 40.1 % of control; in that of TAGGAGAGGAAGGTGG (sugars l3 d10 l3, PS), 3.7 % of control.
With GTCCCGTCTTTGCTTT (sugars l3 d10 l3, PS), the calcium oscillation score is 31.3 % of control.
In the case of “GACACCTCGTCAGCTAGCGT (sugars l3 d14 l3, PS)” it was 11.7 % of control; in that of “AAACCAACTCAACATTACCC (sugars l3 d15 l2, PS)”, 94.3 % of control; in that of GGTCAACTGGTTTGTA (sugars l3 d10 l3, PS), 55.6 % of control.
In the case of “CTTAAAATTTTTCTTATTTT (sugars l4 d12 l4, PS)” it was 62.8 % of control; in that of “ACACCTCGTCAGCTAGCGTG (sugars l3 d14 l3, PS)”, 0 % of control; in that of “CATTTTTTATTCATAACTTT (sugars l4 d12 l4, PS)”, 59.4 % of control.
In the case of “CCACATTTGTCTTTAAC (sugars l3 d10 l4, PS)” it was 42.9 % of control; in that of “TTCTCAGCACACCATTA (sugars l3 d12 l2, PS)”, 60.1 % of control; in that of “TCTTAGAGGACTGCAACGCA (sugars l3 d14 l3, PS)”, 25.7 % of control.
Consider “ATGTTTTTTAACTCCCA (sugars l3 d11 l3, PS)”, for which the calcium oscillation score is 83.5 % of control.
In the case of “TTCCATCCTAAGTCAACC (sugars l3 d13 l2, PS)” it was 70.6 % of control; in that of “ATGATTAATTACACCCC (sugars l3 d11 l3, PS)”, 8.2 % of control.
In the case of GTCAATTTAAATGGA (sugars l3 d9 l3, PS) it was 66.7 % of control; in that of GTCCCGAGCCAAAGCC (sugars l3 d10 l3, PS), 31.3 % of control; in that of ATTAACCAATTAACCG (sugars l3 d10 l3, PS), 103 % of control.
AGGTCACCTTGCTCAG (sugars l3 d10 l3, PS): the calcium oscillation score was 52.8 % of control.
Take “TCAGGTCAACTGGTTTGTAG (sugars l3 d14 l3, PS)”: the calcium oscillation score is 0 % of control.
In the case of “TCTTGTTCTAACCCCACA (sugars l2 d14 l2, PS)” it was 68.1 % of control; in that of GCAATAGCAAACAGG (sugars l3 d9 l3, PS), 40.8 % of control.
With “CTGGTTTATGATGGATGTTG (sugars l3 d14 l3, PS)”, the calcium oscillation score was 0 % of control.
In the case of “TCCTAAGTCAACCACAC (sugars l4 d11 l2, PS)” it was 56.6 % of control.
In the case of CAAACCAGTTACCATCA (sugars l4 d9 l4, PS) it was 87.7 % of control; in that of “CTTTTAATTAAATTTCTCCC (sugars l2 d15 l3, PS)”, 87.6 % of control; in that of AGCCCTAAAGTCCCAG (sugars l3 d10 l3, PS), 38.1 % of control.
In the case of “GGAAAGATGAAATTTGCTCT (sugars l3 d14 l3, PS)” it was 74.1 % of control.
For “AACAAACATCTAAACACCTC (sugars l3 d13 l4, PS)”, the calcium oscillation score is 75.1 % of control.
For GATCTTAGGCTGGC (sugars l3 d8 l3, PS), the calcium oscillation score is 4.6 % of control.
With “TACACTGTCCTTTAAAC (sugars l4 d11 l2, PS)”, the calcium oscillation score was 66.1 % of control.
In the case of GATCTTAGGCTGGCCC (sugars l3 d10 l3, PS) it was 90.7 % of control; in that of “CTAATTACATTTTTTCTTT (sugars l4 d11 l4, PS)”, 62.6 % of control.
In the case of “ATTTCCAAATTCACTTTTAC (sugars lldlldddddddddllddll, PS)”, the calcium oscillation score is 120 % of control.
In the case of “CTAATTACATTTTTTCTT (sugars l4 d10 l4, PS)” it was 63.9 % of control.
In the case of “AATTCATAAATGACTATACT (sugars l3 d14 l3, PS)” it was 40.3 % of control; in that of “ATTCATTTTACTTTACTTTT (sugars l4 d12 l4, PS)”, 88.6 % of control.
In the case of “AGCCTCTAGCCACATGGACC (sugars l3 d14 l3, PS)” it was 16.1 % of control; in that of “TTCCTTTCAATGACCAA (sugars l3 d10 l4, PS)”, 56.6 % of control; in that of “CAAACCACTCTTATTCTTT (sugars l3 d12 l4, PS)”, 83.2 % of control.
With “TTCCCACAATTCCTACA (sugars l3 d12 l2, PS)”, the calcium oscillation score was 73.4 % of control.
In the case of TCTTCAGGTCTGGCAT (sugars l3 d10 l3, PS) it was 39.1 % of control; in that of GTCAACTGGTTTGT (sugars l3 d8 l3, PS), 89.4 % of control.
In the case of TCAGATTTAATTCTCAC (sugars l4 d9 l4, PS) it was 50.7 % of control; in that of CGACTTGTACACGATC (sugars l3 d10 l3, PS), 48.9 % of control.
In the case of “GAGCCACACTTGGAGGTCAC (sugars l3 d14 l3, PS)” it was 0 % of control; in that of CCTTTTCATGTTAAATC (sugars l4 d9 l4, PS), 86.6 % of control.
On to GTCATCGCTTCCAGTC (sugars l3 d10 l3, PS), for which the calcium oscillation score was 85.7 % of control.
In the case of “TTAACTCATCAACACCTT (sugars l3 d11 l4, PS)” it was 114 % of control.
In the case of “TTCTTTTTTTTTCCACACTC (sugars l3 d15 l2, PS)” it was 27.4 % of control.
In the case of ATGTTGCCTAATGAGC (sugars l3 d10 l3, PS) it was 69 % of control.
With “AAACTCATTTACCAATTATC (sugars l4 d12 l4, PS)”, the calcium oscillation score was 56.8 % of control.
In the case of “CCAGCTAGTGGTGCCACCTG (sugars l3 d14 l3, PS)” it was 1.84 % of control; in that of “TTATTTCCAAATTCACTTTT (sugars lllddldddddddddlldll, PS)”, 114 % of control; in that of ACCCAATCTTCGACTG (sugars l3 d10 l3, PS), 43.4 % of control.
In the case of “AATTTATTAATTCATAAATG (sugars l3 d14 l3, PS)” it was 38.3 % of control.
In the case of “CAGGTCTGGCATGGGCACGG (sugars l3 d14 l3, PS)” it was 0 % of control; in that of TTAGCATCAGAGGTTT (sugars l3 d10 l3, PS), 23.3 % of control; in that of “TCTTAATTCATTTAATTCTC (sugars l4 d12 l4, PS)”, 87.1 % of control.
Turning to “CCCAGCACACAGGCAGCCAC (sugars l3 d14 l3, PS)”, the calcium oscillation score is 24.2 % of control.
Turning to “GCAGGTATCCAGCCATATTT (sugars l3 d14 l3, PS)”, the calcium oscillation score was 29.4 % of control.
In the case of “TCATCACCAAGTCCCAA (sugars l2 d12 l3, PS)” it was 61.7 % of control; in that of “AACCAGCTAGTGGTGCCACC (sugars l3 d14 l3, PS)”, 33 % of control.
In the case of “TCAATTCTCATTTCAACCTT (sugars l2 d15 l3, PS)” it was 70.7 % of control.
In the case of TTGGAGCCTACATAGA (sugars l3 d10 l3, PS), the calcium oscillation score is 0 % of control.
“TTTATGATGGATGTTGCCTA (sugars l3 d14 l3, PS)”: the calcium oscillation score is 6.64 % of control.
In the case of CATGTCGATGCTGCCG (sugars l3 d10 l3, PS) it was 67.3 % of control; in that of TTGGATCAGAGGGTCT (sugars l3 d10 l3, PS), 11.1 % of control; in that of GGCGGTGACTGCGA (sugars l3 d8 l3, PS), 41.7 % of control.
In the case of “TCTCAAATCAAACTAATAT (sugars l4 d11 l4, PS)”, the calcium oscillation score is 58.1 % of control.
In the case of GGAACTATTGATAA (sugars l3 d8 l3, PS), the calcium oscillation score is 0 % of control.
In the case of AACATCACCAGCCTTC (sugars l3 d9 l4, PS) it was 50.7 % of control.
Consider GGCATGATTGTGGGC (sugars l3 d9 l3, PS), for which the calcium oscillation score was 5.22 % of control.
In the case of “ACCATCATACTCCAAGT (sugars l3 d12 l2, PS)” it was 77.7 % of control; in that of “TTCACACAACAAACTATTAT (sugars l4 d12 l4, PS)”, 70.7 % of control; in that of “CATCCATTTTCTGACTCT (sugars l4 d12 l2, PS)”, 42.4 % of control.
Take “ATACAGTTGGCCCTACCATA (sugars l3 d14 l3, PS)”: the calcium oscillation score was 30.9 % of control.
In the case of “TCATTTTTCTCAAGCTCC (sugars l2 d14 l2, PS)” it was 55.8 % of control; in that of CCCAGCGTGATCTT (sugars l3 d8 l3, PS), 46 % of control.
On to “TATTTCCAAATTCACTTTTA (sugars l4 d10 l1 d2 l3, PS)”, for which the calcium oscillation score was 127 % of control.
In the case of ACCCCGAATTTACACC (sugars l3 d11 l2, PS) it was 97.5 % of control.
